From US11566007B2, “Ras inhibitors” (Revolution Medicines, Inc., priority 2019, dated 2023)
Values joined by “and” are separate entries in the source; they are usually repeats but may differ in a detail not shown here. Equal entries are not always repeated. Where two headings read alike, the source gives them in different places.

Key:
[1] = tested on: NCI-H358 cells (K-Ras G12C); assay: Potency assay: pERK in NCI-H358 cells; type: cell-based, human; details: H358 KRAS G12C, read-out: pERK EC50
In short: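 Compounds are dosed as ten 3-fold dilutions from a 10 mM DMSO stock, in duplicate, and left on cells for 4 h at 37 °C, 5% CO2. Phospho-ERK1/2 is then quantified by AlphaLISA SureFire Ultra or In-Cell Western, and IC50 is derived from a 4-parameter sigmoid against log concentration.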

[2] = tested on: NCI-H358 (K-Ras G12C); assay: CellTiter-Glo cell viability assay, NCI-H358; type: cell-based, human; details: NCI-H358, 5-day treatment, class symbols, read-out: Additional H358 Cell Viability assay data (K-Ras G12C, IC50)
In short: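 Four-parameter logistic fits were applied to luminescence data normalized against DMSO-treated wells. Readings were taken on day 5 following direct compound addition, after roughly 30 minutes at room temperature.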

[3] = molecular target: K-Ras G12C (Homo sapiens (Human), UniProt P01116+P62937, G12C); assay: Ras-Raf (BRAF RBD) disruption / FRET / MOA assay, KRAS G12C; type: biochemical; details: KRAS G12C; Ras-Raf disruption/FRET/MOA assay; read-out: IC50* KRAS G12C FRET data
Experimental: (§1) The purpose of this biochemical assay is to measure the ability of test compounds to facilitate ternary complex formation between a nucleotide-loaded Ras isoform and cyclophilin A; the resulting ternary complex disrupts binding to a BRAF^RBD construct, inhibiting Ras signaling through a RAF effector.
(§2) Compound is present in plate wells as a 10-point 3-fold dilution series starting at a final concentration of 30 μM. After incubation at 25° C. for 3 hours, a mixture of Anti-His Eu-W1024 and anti-GST allophycocyanin is then added to assay sample wells at final concentrations of 10 nM and 50 nM, respectively, and the reaction incubated for an additional 1.5 hours. […] Compounds that facilitate disruption of a Ras:RAF complex are identified as those eliciting a decrease in the TR-FRET ratio relative to DMSO control wells.
(§3) This protocol may also be executed substituting other Ras proteins or nucleotides.
(§4) The purpose of this biochemical assay was to measure the ability of test compounds to facilitate ternary complex formation between a nucleotide-loaded K-Ras isoform and Cyclophilin A; the resulting ternary complex disrupts binding to a BRAF^RBD construct, inhibiting K-Ras signaling through a RAF effector. Data is reported as IC50 values.
(§5) Compound was present in plate wells as a 10-point 3-fold dilution series starting at a final concentration of 30 μM. After incubation at 25° C. for 3 hours, a mixture of Anti-His Eu-W1024 and anti-GST allophycocyanin was then added to assay sample wells at final concentrations of 10 nM and 50 nM, respectively, and the reaction incubated for an additional 1.5 hours. […] Compounds that facilitate disruption of a K-Ras:RAF complex were identified as those eliciting a decrease in the TR-FRET ratio relative to DMSO control wells.

[4] = molecular target: KRAS G12S (Homo sapiens (Human), UniProt P01116+P62937, G12S); assay: Ras-Raf (BRAF RBD) disruption / FRET / MOA assay, KRAS G12S; type: biochemical; details: Ras-Raf disruption/FRET/MOA assay; class symbols; read-out: KRAS G12S FRET data IC50
In short: (§6)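 Ternary complex formation (Ras–compound–cyclophilin A) displacing BRAF RBD, monitored by TR-FRET. Three hours at 25° C with compound (top 30 μM final), then 1.5 h with the labelled antibodies. Lower ratio than DMSO indicates disruption; IC50 reported.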

[5] = molecular target: KRAS G12D (Homo sapiens (Human), UniProt P01116+P62937, G12D); assay: Ras-Raf (BRAF RBD) disruption / FRET / MOA assay, KRAS G12D; type: biochemical; details: Ras-Raf disruption/FRET/MOA assay; class symbols; read-out: KRAS G12D FRET data IC50
In short: as §6

[6] = molecular target: KRAS G12V (Homo sapiens (Human), UniProt P01116+P62937, G12V); assay: Ras-Raf (BRAF RBD) disruption / FRET / MOA assay, KRAS G12V; type: biochemical; details: read-out: IC50* KRAS G12V FRET data
Experimental: as §1, §2, §3, §4, §5

[7] = molecular target: KRAS WT (Homo sapiens (Human), UniProt P01116+P62937); assay: Ras-Raf (BRAF RBD) disruption / FRET / MOA assay, KRAS WT; type: biochemical; details: read-out: IC50* KRAS WT FRET data
Experimental: as §1, §2, §3, §4, §5

[8] = molecular target: KRAS G13D (Homo sapiens (Human), UniProt P01116+P62937, G13D); assay: Ras-Raf (BRAF RBD) disruption / FRET / MOA assay, KRAS G13D; type: biochemical; details: read-out: IC50* KRAS G13D FRET data
Experimental: as §1, §2, §3, §4, §5

[9] = molecular target: K-Ras G13C (Homo sapiens (Human), UniProt P01116+P62937, G13C); assay: Ras-Raf (BRAF RBD) disruption / FRET / MOA assay, KRAS G13C; type: biochemical; details: KRAS G13C; Ras-Raf disruption/FRET/MOA assay; read-out: IC50* KRAS G13C FRET data
Experimental: as §1, §2, §3, §4, §5

[10] = molecular target: NRAS G12C (Homo sapiens (Human), UniProt P01111+P62937, G12C); assay: Ras-Raf (BRAF RBD) disruption / FRET / MOA assay, NRAS G12C; type: biochemical; details: read-out: IC50* NRAS G12C FRET data
Experimental: as §1, §2
This protocol may also be executed substituting other Ras proteins or nucleotides. […]

Chain of K-Ras G12C (P01116-2 other isoform, or with tags, fused parts or gaps G12C): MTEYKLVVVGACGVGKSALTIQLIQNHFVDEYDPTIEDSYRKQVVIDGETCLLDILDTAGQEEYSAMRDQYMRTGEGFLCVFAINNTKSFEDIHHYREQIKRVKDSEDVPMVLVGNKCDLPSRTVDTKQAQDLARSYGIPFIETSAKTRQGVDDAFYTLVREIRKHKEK
Chain of K-Ras G12C (P62937 whole entry, canonical isoform): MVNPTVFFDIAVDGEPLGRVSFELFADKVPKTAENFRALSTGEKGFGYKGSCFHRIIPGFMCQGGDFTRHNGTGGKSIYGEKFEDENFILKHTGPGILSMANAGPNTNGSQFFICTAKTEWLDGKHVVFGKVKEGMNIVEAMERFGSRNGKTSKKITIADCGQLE
Chain of NRAS G12C (P01111 whole entry G12C): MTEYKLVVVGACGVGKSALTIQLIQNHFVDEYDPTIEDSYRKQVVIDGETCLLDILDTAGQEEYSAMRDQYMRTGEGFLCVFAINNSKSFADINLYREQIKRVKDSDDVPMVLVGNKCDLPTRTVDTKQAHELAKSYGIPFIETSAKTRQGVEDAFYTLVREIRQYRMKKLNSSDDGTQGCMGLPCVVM
Chain of NRAS G12C (P62937 whole entry): as the sequence (P62937 whole entry, canonical isoform) above
Chain of K-Ras G13C (P01116-2 other isoform, or with tags, fused parts or gaps G13C): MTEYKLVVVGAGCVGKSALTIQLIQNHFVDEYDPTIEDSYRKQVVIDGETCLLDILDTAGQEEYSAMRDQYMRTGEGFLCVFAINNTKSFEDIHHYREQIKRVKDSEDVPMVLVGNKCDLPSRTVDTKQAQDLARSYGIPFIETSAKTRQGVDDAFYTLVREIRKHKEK
Chain of K-Ras G13C (P62937 whole entry): as the sequence (P62937 whole entry, canonical isoform) above
Chain of KRAS G13D (P01116-2 other isoform, or with tags, fused parts or gaps G13D): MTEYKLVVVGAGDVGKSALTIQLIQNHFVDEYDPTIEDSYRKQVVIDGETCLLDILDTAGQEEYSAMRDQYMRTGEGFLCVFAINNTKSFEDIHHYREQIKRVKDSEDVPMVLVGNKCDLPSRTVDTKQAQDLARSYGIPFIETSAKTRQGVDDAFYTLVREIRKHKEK
Chain of KRAS G13D (P62937 whole entry): as the sequence (P62937 whole entry, canonical isoform) above
Chain of KRAS G12V (P01116-2 other isoform, or with tags, fused parts or gaps G12V): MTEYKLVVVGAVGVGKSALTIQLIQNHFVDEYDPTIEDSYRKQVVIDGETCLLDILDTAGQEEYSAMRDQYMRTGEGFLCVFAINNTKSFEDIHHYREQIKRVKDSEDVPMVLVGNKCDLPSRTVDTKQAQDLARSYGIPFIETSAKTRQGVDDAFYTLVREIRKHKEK
Chain of KRAS G12V (P62937 whole entry): as the sequence (P62937 whole entry, canonical isoform) above
Chain of KRAS G12S (P01116-2 other isoform, or with tags, fused parts or gaps G12S): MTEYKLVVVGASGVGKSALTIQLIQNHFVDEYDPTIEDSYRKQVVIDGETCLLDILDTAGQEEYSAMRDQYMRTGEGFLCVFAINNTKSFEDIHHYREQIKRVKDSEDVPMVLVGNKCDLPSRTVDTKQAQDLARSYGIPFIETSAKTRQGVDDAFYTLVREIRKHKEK
Chain of KRAS G12S (P62937 whole entry): as the sequence (P62937 whole entry, canonical isoform) above
Chain of KRAS WT (P01116-2 other isoform, or with tags, fused parts or gaps): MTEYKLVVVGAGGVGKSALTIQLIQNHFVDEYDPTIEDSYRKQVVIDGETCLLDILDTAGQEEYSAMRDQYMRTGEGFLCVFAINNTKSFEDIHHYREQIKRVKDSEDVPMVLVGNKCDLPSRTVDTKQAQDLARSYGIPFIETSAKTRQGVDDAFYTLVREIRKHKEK
Chain of KRAS WT (P62937 whole entry): as the sequence (P62937 whole entry, canonical isoform) above
Chain of KRAS G12D (P01116-2 other isoform, or with tags, fused parts or gaps G12D): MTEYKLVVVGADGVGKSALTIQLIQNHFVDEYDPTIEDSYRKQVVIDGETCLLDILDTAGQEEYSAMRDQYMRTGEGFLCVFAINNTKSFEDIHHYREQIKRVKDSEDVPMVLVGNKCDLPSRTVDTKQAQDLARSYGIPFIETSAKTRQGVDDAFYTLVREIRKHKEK
Chain of KRAS G12D (P62937 whole entry): as the sequence (P62937 whole entry, canonical isoform) above

| SMILES | EC50 [1] [nM] | IC50 ([2]; Homo sapiens, NCI-H358, 120 h) [nM] | IC50 [3] | IC50 [4] [nM] | IC50 [5] [nM] | IC50 [6] | IC50 [7] | IC50 [8] [nM] | EC50 ([1]; Homo sapiens, NCI-H358) [nM] | IC50 [9] | IC50 [10] | IC50 [2] [nM] |
| --- | --- | --- | --- | --- | --- | --- | --- | --- | --- | --- | --- | --- |
| CCn1c(-c2cnccc2COC)c2c3cc(ccc31)-c1cc(O)cc(c1)C[C@H](NC(=O)[C@H](C(C)C)N(C)C(=O)[C@H]1CCN(C(=O)C#CCN(C)C)C1)C(=O)N1CCC[C@H](N1)C(=O)OCC(C)(C)C2 (atropisomer, axis not shown) [Example A107] | < 5000 | < 10 | < 10 nM | 100 to 1000 | 100 to 1000 | 100 to 1000 nM | 100 to 1000 nM | 100 to 1000 |  |  |  |  |
| C=CC(=O)N1CC[C@H](C(=O)N(C)[C@H](C(=O)N[C@H]2Cc3cccc(c3)-c3ccc4c(c3)c(c(-c3cnccc3COC)n4CC)CC(C)(C)COC(=O)[C@@H]3CCCN(N3)C2=O)C(C)C)C1 (atropisomer, axis not shown) [Example A119] |  | 10 to 100 | 100 to 1000 nM | 1000 to 10000 | > 10000 | > 10000 nM |  | > 10000 | < 5000 | 1000 to 10000 nM | 100 to 1000 nM |  |
| CCn1c(-c2cccnc2[C@H](C)OC)c2c3cc(ccc31)-c1cccc(c1)C[C@H](NC(=O)[C@H](C(C)C)N(C)C(=O)[C@H]1CCN(C(=O)/C=C/CN3CC(OC)C3)C1)C(=O)N1CCC[C@H](N1)C(=O)OCC(C)(C)C2 (atropisomer, axis not shown) [Example A204] |  |  | 10 to 100 nM | 1000 to 10000 | > 10000 | 1000 to 10000 nM | 1000 to 10000 nM |  | < 5000 | 1000 to 10000 nM | 10 to 100 nM |  |
| C=CC(=O)Nc1ccc(C(=O)N(C)[C@H](C(=O)N[C@H]2Cc3cc(O)cc(c3)-c3ccc4c(c3)c(c(-c3cccnc3[C@H](C)OC)n4CC)CC(C)(C)COC(=O)[C@@H]3CCCN(N3)C2=O)C(C)C)cn1 (atropisomer, axis not shown) [Example A336] | < 5000 |  |  | 100 to 1000 | 1000 to 10000 | 100 to 1000 nM | 100 to 1000 nM | 100 to 1000 |  | < 10 nM | < 10 nM |  |
| C=CC(=O)N1CCN(C(=O)N(C)[C@H](C(=O)N[C@H]2Cc3nc(cs3)-c3ccc4c(c3)c(c(-c3cccnc3[C@H](C)OC)n4CC(F)(F)F)CC(C)(C)COC(=O)[C@@H]3CCCN(N3)C2=O)C(C)C)CC1 (atropisomer, axis not shown) [Example A465] | < 5000 |  | 10 to 100 nM | 10 to 100 | 10 to 100 |  | 10 to 100 nM | 10 to 100 |  | 10 to 100 nM | 10 to 100 nM |  |
| C=CC(=O)N1CCC(C(=O)N(C)[C@H](C(=O)N[C@H]2CCC(=O)N(C)Cc3ccc4c(c3)c(c(-c3cccnc3[C@H](C)OC)n4CC)CC(C)(C)COC(=O)[C@@H]3CCCN(N3)C2=O)C(C)C)C1 (atropisomer, axis not shown) [Example A500] |  | > 1000 |  | > 10000 | > 10000 | > 10000 nM | > 10000 nM |  |  | > 10000 nM | > 10000 nM |  |
| C=CC(=O)N1CC[C@H](C(=O)N(C)[C@H](C(=O)NC2C[C@H]3CN(CCCO3)c3ccc4c(c3)c(c(-c3cccnc3[C@H](C)OC)n4CC)CC(C)(C)COC(=O)[C@@H]3CCCN(N3)C2=O)C(C)C)C1 (single isomer, unassigned) [Example A405] |  | > 1000 |  | > 10000 | > 10000 | > 10000 nM | > 10000 nM | > 10000 |  | > 10000 nM | > 10000 nM |  |
| CCn1c(-c2cccnc2COC)c2c3cc(ccc31)-c1cc(O)cc(c1)C[C@H](NC(=O)[C@H](C(C)C)N(C)C(=O)[C@H]1CCN(C(=O)C#CCN3CCOCC3)C1)C(=O)N1CCC[C@H](N1)C(=O)OCC(C)(C)C2 [Example A095] |  |  |  | 100 to 1000 | > 10000 | 100 to 1000 nM | 1000 to 10000 nM | 1000 to 10000 |  | 100 to 1000 nM |  |  |
| CCn1c(-c2cccnc2COC)c2c3cc(ccc31)-c1cc(C)cc(c1)C[C@H](NC(=O)[C@H](C(C)C)N(C)C(=O)[C@H]1CCN(C(=O)C#CCN(C)C)C1)C(=O)N1CCC[C@H](N1)C(=O)OCC(C)(C)C2 [Example A157] | < 5000 |  | < 10 nM | > 10000 | 1000 to 10000 |  |  |  |  | 100 to 1000 nM | < 10 nM |  |
| CCn1c(-c2cccnc2[C@H](C)OC)c2c3cc(ccc31)-c1cc(O)cc(c1)C[C@H](NC(=O)[C@H](C(C)C)N(C)C(=O)[C@H]1CCN(C(=O)C#CC3(N(C)C)COC3)C1)C(=O)N1CCC[C@H](N1)C(=O)OCC(C)(C)C2 [Example A246] |  | < 10 |  | 100 to 1000 | 1000 to 10000 | 100 to 1000 nM | 100 to 1000 nM | 100 to 1000 | < 5000 | 10 to 100 nM |  |  |
| C=CC(=O)Nc1cnc(C(=O)N(C)[C@H](C(=O)N[C@H]2Cc3cc(O)cc(c3)-c3ccc4c(c3)c(c(-c3cccnc3[C@H](C)OC)n4CC)CC(C)(C)COC(=O)[C@@H]3CCCN(N3)C2=O)C(C)C)n1C [Example A334] |  |  | < 10 nM and 10 to 100 nM | 10 to 100 | 100 to 1000 | 100 to 1000 nM and 10 to 100 nM | 100 to 1000 nM and 10 to 100 nM |  | < 5000 | 10 to 100 nM and < 10 nM | < 10 nM and 10 to 100 nM | < 10 |
